From patent publication US20020035061A1, “COMPOSITIONS AND METHODS FOR TREATING INFECTIONS USING CATIONIC PEPTIDES ALONE OR IN COMBINATION WITH ANTIBIOTICS” (priority 1996, published 2002)
Several values for one entry are separate records, joined by “and”; a condition that tells them apart may be missing. Identical values can stand only once. Like-named read-outs stand apart in the source and are kept apart here.

How the values were obtained:
Type in all cases: cell-based
[1] = tested on: S. aureus; conditions: for Peptide MIC values: agarose dilution; for MIC, Peptide: unmodified parent peptide
[2] = tested on: S. epidermidis
[3] = tested on: microorganisms with acquired resistance; experiment: microbe, parasite or virus in culture; conditions: for Peptide MIC: combination with Mupirocin, in µg/mL
[4] = tested on: vancomycin / teicoplanin resistant enterococci; experiment: microbe, parasite or virus in culture; conditions: for Peptide MIC Alone: Vancomycin section; for FIC: peptide + Vancomycin
[5] = tested on: E. cloacae
[6] = tested on: inherently resistant microorganisms; experiment: microbe, parasite or virus in culture
[7] = tested on: A. calcoaceticus
[8] = tested on: S. marcescens; conditions: for Peptide MIC values: agarose dilution
[9] = tested on: E. faecalis; conditions: for MIC, Peptide: unmodified parent peptide
[10] = tested on: K. pneumoniae
[11] = tested on: S. maltophilia
[12] = S. maltophilia 2, Piperacillin section
[13] = peptide + Piperacillin, S. maltophilia 2

ILKKFPFFPFRRK [MBI 11A1CN]
MIC ([1]; S. aureus SA005): 8 µg/mL | Peptide MIC values ([1]; S. aureus ATCC 29213): 2 µg/mL | Peptide MIC values ([1]; S. aureus MRSA9): 8 µg/mL | Peptide MIC values ([1]; S. aureus MRSA13): >128 µg/mL | Peptide MIC values ([1]; S. aureus MRSA17): 32 µg/mL | Peptide MIC values ([1]; S. aureus SA206): 128 µg/mL | MIC ([2]; S. epidermidis SE002): 16 µg/mL | Peptide MIC ([3]; S. aureus): 32 | Peptide MIC + Vancomycin ([4]; E. faecalis EFS003): 32 µg/mL | Vancomycin MIC + Peptide ([4]; E. faecalis EFS003): 4 µg/mL | Peptide MIC Alone ([4]; E. faecalis EFS003): >128 µg/mL | Peptide MIC + Vancomycin ([4]; E. faecalis EFS006): 0.25 µg/mL | Vancomycin MIC + Peptide ([4]; E. faecalis EFS006): 4 µg/mL | Peptide MIC Alone ([4]; E. faecalis EFS006): 128 µg/mL | Peptide MIC + Vancomycin ([4]; E. faecalis EFS010): 8 µg/mL | Vancomycin MIC + Peptide ([4]; E. faecalis EFS010): 1 µg/mL | Peptide MIC Alone ([4]; E. faecalis EFS010): 128 µg/mL | Peptide MIC + Vancomycin ([4]; E. faecalis EFS014): 2 µg/mL | Vancomycin MIC + Peptide ([4]; E. faecalis EFS014): 1 µg/mL | Peptide MIC Alone ([4]; E. faecalis EFS014): 4 µg/mL | Peptide MIC + Vancomycin ([4]; E. faecium EFM004): 16 µg/mL | Vancomycin MIC + Peptide ([4]; E. faecium EFM004): 0.5 µg/mL | Peptide MIC Alone ([4]; E. faecium EFM004): 32 µg/mL | Peptide MIC + Vancomycin ([4]; E. faecium EFM007): 16 µg/mL | Vancomycin MIC + Peptide ([4]; E. faecium EFM007): 4 µg/mL | Peptide MIC Alone ([4]; E. faecium EFM007): 64 µg/mL | Peptide MIC + Vancomycin ([4]; E. faecium EFM009): 8 µg/mL | Vancomycin MIC + Peptide ([4]; E. faecium EFM009): 4 µg/mL | Peptide MIC Alone ([4]; E. faecium EFM009): 64 µg/mL | FIC ([4]; E. faecalis EFS003): 0.63 | FIC ([4]; E. faecalis EFS006): 0.50 | FIC ([4]; E. faecalis EFS010): 0.13 | FIC ([4]; E. faecalis EFS014): 0.51 | FIC ([4]; E. faecium EFM004): 0.50 | FIC ([4]; E. faecium EFM007): 0.28 | FIC ([4]; E. faecium EFM009): 0.25 | MIC ([5]; E. cloacae ECL007): >128 µg/mL | Peptide MIC + Tobramycin ([6]; S. haemolyticus): 0.125 µg/mL | Peptide MIC Alone ([6]; S. haemolyticus, Tobramycin section): 16 µg/mL | FIC ([6]; peptide + Tobramycin, S. aureus): 0.50 | FIC ([6]; peptide + Tobramycin, S. haemolyticus): 0.51 | MIC ([7]; A. calcoaceticus AC002): 16 µg/mL | MIC ([8]; S. marcescens SBSM2): >128 µg/mL | Peptide MIC values ([8]; S. marcescens SM76): >128 µg/mL | Peptide MIC values ([8]; S. marcescens SM82): >128 µg/mL | MIC ([9]; E. faecalis EFS002): 32 µg/mL | MIC ([10]; K. pneumoniae KP002): >128 µg/mL | MIC ([11]; S. maltophilia SMA002): >128 µg/mL

ILKKWPWWPWRRK [MBI 11CN]
MIC ([1]; S. aureus SA003): 2 µg/mL | Peptide MIC values ([1]; S. aureus MRSA9): 2 µg/mL | Peptide MIC values ([1]; S. aureus MRSA13): 16 µg/mL | Peptide MIC values ([1]; S. aureus MRSA17): 4 µg/mL | MIC ([2]; S. epidermidis SE001): 2 µg/mL | Peptide MIC + Tobramycin ([3]; A. baumannii ABI001): 16 µg/mL | Tobramycin MIC + Peptide ([3]; A. baumannii ABI001): 4 µg/mL | Peptide MIC Alone ([3]; A. baumannii ABI001, Tobramycin section): 64 µg/mL | Peptide MIC + Piperacillin ([3]; A. calcoaceticus 3): 32 µg/mL | Piperacillin MIC + Peptide ([3]; A. calcoaceticus 3): 16 µg/mL | Peptide MIC Alone ([3]; A. calcoaceticus 3, Piperacillin section): 64 µg/mL | Peptide MIC + Tobramycin ([3]; E. coli EC0006): 0.25 µg/mL | Tobramycin MIC + Peptide ([3]; E. coli EC0006): 4 µg/mL | Peptide MIC Alone ([3]; E. coli EC0006, Tobramycin section): 8 µg/mL | Peptide MIC ([3]; E. faecium): 8 | Peptide MIC + Piperacillin ([3]; P. aeruginosa 22): 32 µg/mL | Piperacillin MIC + Peptide ([3]; P. aeruginosa 22): 4 µg/mL | Peptide MIC Alone ([3]; P. aeruginosa 22, Piperacillin section): 64 µg/mL | Peptide MIC + Piperacillin ([3]; P. aeruginosa 23): 4 µg/mL | Piperacillin MIC + Peptide ([3]; P. aeruginosa 23): 64 µg/mL | Peptide MIC Alone ([3]; P. aeruginosa 23, Piperacillin section): 128 µg/mL | Peptide MIC + Tobramycin ([3]; P. aeruginosa PA032): 64 µg/mL | Tobramycin MIC + Peptide ([3]; P. aeruginosa PA032): 4 µg/mL | Peptide MIC Alone ([3]; P. aeruginosa PA032, Tobramycin section): >128 µg/mL | Peptide MIC ([3]; S. aureus): 16 | Peptide MIC + Piperacillin ([3]; S. maltophilia 2): 32 µg/mL | Piperacillin MIC + Peptide ([3]; S. maltophilia 2): 16 µg/mL | Peptide MIC Alone [3, 12]: 64 µg/mL | Peptide MIC + Tobramycin ([3]; S. maltophilia SMA029): 64 µg/mL | Tobramycin MIC + Peptide ([3]; S. maltophilia SMA029): 2 µg/mL | Peptide MIC Alone ([3]; S. maltophilia SMA029, Tobramycin section): >128 µg/mL | Peptide MIC + Tobramycin ([3]; S. maltophilia SMA030): 64 µg/mL | Tobramycin MIC + Peptide ([3]; S. maltophilia SMA030): 2 µg/mL | Peptide MIC Alone ([3]; S. maltophilia SMA030, Tobramycin section): >128 µg/mL | FIC ([3]; peptide + Piperacillin, A. calcoaceticus 3): 1.00 | FIC ([3]; peptide + Piperacillin, P. aeruginosa 22): 0.52 | FIC ([3]; peptide + Piperacillin, P. aeruginosa 23): 0.53 | FIC [3, 13]: 0.75 | FIC ([3]; peptide + Tobramycin, A. baumannii ABI001): 0.50 | FIC ([3]; peptide + Tobramycin, E. coli EC0006): 0.53 | FIC ([3]; peptide + Tobramycin, P. aeruginosa PA032): 0.50 | FIC ([3]; peptide + Tobramycin, S. maltophilia SMA029): 0.27 | FIC ([3]; peptide + Tobramycin, S. maltophilia SMA030): 0.27 | MIC ([5]; E. cloacae ECL007): >64 µg/mL | MIC ([7]; A. calcoaceticus AC001): 128 µg/mL | MIC ([8]; S. marcescens SBSM1): >128 µg/mL | MIC ([8]; S. marcescens SMS003): >128 µg/mL | Peptide MIC values ([8]; S. marcescens SM82): >128 µg/mL | MIC ([9]; E. faecalis EFS001): 32 µg/mL | MIC ([10]; K. pneumoniae KP002): 128 µg/mL | MIC ([11]; S. maltophilia SMA001): 64 µg/mL

ILRWPWWPWRRK [MBI 11B7CN]
MIC, Peptide ([1]; S. aureus SA010): 1 µg/mL | MIC, Peptide ([1]; S. aureus SA011): 4 µg/mL | MIC, Peptide ([1]; S. aureus SA014): 2 µg/mL | MIC, Peptide ([1]; S. aureus SA018): 16 µg/mL | MIC, Peptide ([1]; S. aureus SA025): 1 µg/mL | MIC, Peptide ([1]; S. aureus SA093): 1 µg/mL | MIC ([1]; S. aureus strain SA009): 2 µg/mL | MIC, Peptide ([2]; S. epidermidis SE010, unmodified parent peptide): 2 µg/mL | MIC ([2]; S. epidermidis strain SE003): 2 µg/mL | Ceftriaxone MIC + Peptide ([3]; A. baumannii ABI002): 8 µg/mL | Peptide MIC + Ceftriaxone ([3]; A. baumannii ABI002): 8 µg/mL | Peptide MIC Alone ([3]; A. baumannii ABI002, Ceftriaxone section): 32 µg/mL | Ceftriaxone MIC + Peptide ([3]; A. baumannii ABI005): 8 µg/mL | Peptide MIC + Ceftriaxone ([3]; A. baumannii ABI005): 1 µg/mL | Peptide MIC Alone ([3]; A. baumannii ABI005, Ceftriaxone section): 16 µg/mL | Peptide MIC + Piperacillin ([3]; H. influenzae 1): 1 µg/mL | Piperacillin MIC + Peptide ([3]; H. influenzae 1): 8 µg/mL | Peptide MIC Alone ([3]; H. influenzae 1, Piperacillin section): >128 µg/mL | Peptide MIC + Piperacillin ([3]; S. maltophilia 2): 8 µg/mL | Piperacillin MIC + Peptide ([3]; S. maltophilia 2): 16 µg/mL | Peptide MIC Alone [3, 12]: 128 µg/mL | Peptide MIC + Piperacillin ([3]; S. marcescens 1): 4 µg/mL | Piperacillin MIC + Peptide ([3]; S. marcescens 1): 8 µg/mL | Peptide MIC Alone ([3]; S. marcescens 1, Piperacillin section): >128 µg/mL | FIC ([3]; peptide + Ceftriaxone, A. baumannii ABI002): 0.50 | FIC ([3]; peptide + Ceftriaxone, A. baumannii ABI005): 0.56 | FIC ([3]; peptide + Piperacillin, H. influenzae 1): 0.13 | FIC [3, 13]: 1.00 | FIC ([3]; peptide + Piperacillin, S. marcescens 1): 0.27 | MIC, Peptide ([5]; E. cloacae ECL007, unmodified parent peptide): 128 µg/mL | MIC ([5]; E. cloacae strain ECL0009): 32 µg/mL | Peptide MIC + Ceftriaxone ([6]; P. aeruginosa): 64 µg/mL | Peptide MIC Alone ([6]; P. aeruginosa, Ceftriaxone section): 128 µg/mL | Peptide MIC + Piperacillin ([6]; S. aureus MRSA): 2 µg/mL | Peptide MIC Alone ([6]; S. aureus MRSA, Piperacillin section): 4 µg/mL | Peptide MIC Alone ([6]; S. maltophilia, Ceftriaxone section): 32 µg/mL | FIC ([6]; peptide + Ceftriaxone, P. aeruginosa): 0.50 | FIC ([6]; peptide + Piperacillin, S. aureus MRSA): 0.50 | MIC, Peptide ([7]; A. calcoaceticus AC002, unmodified parent peptide): 2 µg/mL | MIC ([7]; A. calcoaceticus strain AC003): 32 µg/mL | MIC, Peptide ([8]; S. marcescens SMS003, unmodified parent peptide): >128 µg/mL | MIC ([8]; S. marcescens strain SBSM1): >128 µg/mL | MIC, Peptide ([9]; E. faecalis EFS004): 8 µg/mL | MIC, Peptide ([9]; E. faecalis EFS008): 2 µg/mL and 4 µg/mL | MIC ([9]; E. faecalis strain EFS004): 4 µg/mL | MIC, Peptide ([10]; K. pneumoniae KP001, unmodified parent peptide): 4 µg/mL and 8 µg/mL | MIC ([10]; K. pneumoniae strain KP0011): 32 µg/mL | MIC, Peptide ([11]; S. maltophilia SMA002, unmodified parent peptide): 16 µg/mL | MIC ([11]; S. maltophilia strain SMA004): 128 µg/mL
